Source: PubChem BioAssay (NCI)
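GI50 is the concentration that inhibits growth by half. TGI: total growth inhibition.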

Columns and labels:
Experiment in all cases: NCI tumour cell line growth inhibition, 384-well format; in the data active = GI50 below about 0.43 µM; inactive = the rest
SNB-19 CNS = tested on: SNB-19 CNS
HCC-2998 colon = tested on: HCC-2998 colon
786-0 renal = tested on: 786-0 renal
NCI-H522 lung = tested on: NCI-H522 lung
SK-MEL-28 melanoma = tested on: SK-MEL-28 melanoma
U251 glioblastoma = tested on: U251 glioblastoma
MDA-MB-468 breast = tested on: MDA-MB-468 breast
HS 578T breast = tested on: HS 578T breast
ACHN renal = tested on: ACHN renal
SF-539 CNS = tested on: SF-539 CNS
RXF 393 renal = tested on: RXF 393 renal
NCI/ADR-RES ovarian = tested on: NCI/ADR-RES ovarian
MDA-MB-435 melanoma = tested on: MDA-MB-435 melanoma
A549 NSCLC = tested on: A549 NSCLC
COLO 205 colon = tested on: COLO 205 colon
OVCAR-5 ovarian = tested on: OVCAR-5 ovarian
UACC-62 melanoma = tested on: UACC-62 melanoma
NCI-H322M lung = tested on: NCI-H322M lung
SK-MEL-5 melanoma = tested on: SK-MEL-5 melanoma
SF-295 CNS = tested on: SF-295 CNS
BT-549 breast = tested on: BT-549 breast
OVCAR-3 ovarian = tested on: OVCAR-3 ovarian
T-47D breast = tested on: T-47D breast
MOLT-4 leukemia = tested on: MOLT-4 leukemia
SW-620 colon = tested on: SW-620 colon
OVCAR-4 ovarian = tested on: OVCAR-4 ovarian
PC-3 prostate = tested on: PC-3 prostate
A498 renal = tested on: A498 renal
CCRF-CEM leukemia = tested on: CCRF-CEM leukemia
MALME-3M melanoma = tested on: MALME-3M melanoma
RPMI-8226 leukemia = tested on: RPMI-8226 leukemia
MCF7 breast = tested on: MCF7 breast
SF-268 CNS = tested on: SF-268 CNS
DU-145 prostate = tested on: DU-145 prostate
HL-60(TB) leukemia = tested on: HL-60(TB) leukemia
KM12 colon = tested on: KM12 colon
OVCAR-8 ovarian = tested on: OVCAR-8 ovarian
TK-10 renal = tested on: TK-10 renal
SK-OV-3 ovarian = tested on: SK-OV-3 ovarian
MDA-MB-231 breast = tested on: MDA-MB-231 breast
HCT-15 colon = tested on: HCT-15 colon
SR leukemia = tested on: SR leukemia
SN12C renal = tested on: SN12C renal
SK-MEL-2 melanoma = tested on: SK-MEL-2 melanoma
NCI-H23 lung = tested on: NCI-H23 lung
HOP-62 NSCLC = tested on: HOP-62 NSCLC
UACC-257 melanoma = tested on: UACC-257 melanoma
NCI-H226 lung = tested on: NCI-H226 lung
IGROV1 ovarian = tested on: IGROV1 ovarian
CAKI-1 renal = tested on: CAKI-1 renal
HT29 colon = tested on: HT29 colon
EKVX NSCLC = tested on: EKVX NSCLC
NCI-H460 NSCLC = tested on: NCI-H460 NSCLC
M14 melanoma = tested on: M14 melanoma
HOP-92 NSCLC = tested on: HOP-92 NSCLC

O=C(O)C(=O)CBr
56.8 µM: TGI (MDA-MB-468 breast)
inactive: GI50 (SNB-19 CNS) > 100 µM | GI50 (HCC-2998 colon) > 100 µM | GI50 (786-0 renal) > 100 µM | GI50 (NCI-H522 lung) 23.5 µM | GI50 (SK-MEL-28 melanoma) > 100 µM | GI50 (U251 glioblastoma) > 100 µM | GI50 (MDA-MB-468 breast) 24.7 µM | GI50 (HS 578T breast) > 100 µM | GI50 (ACHN renal) > 100 µM | GI50 (SF-539 CNS) > 100 µM | GI50 (RXF 393 renal) 22.5 µM | GI50 (NCI/ADR-RES ovarian) > 100 µM | GI50 (MDA-MB-435 melanoma) > 100 µM | GI50 (A549 NSCLC) > 100 µM | GI50 (COLO 205 colon) > 100 µM | GI50 (OVCAR-5 ovarian) > 100 µM | GI50 (UACC-62 melanoma) > 100 µM | GI50 (NCI-H322M lung) > 100 µM | GI50 (SK-MEL-5 melanoma) > 100 µM | GI50 (SF-295 CNS) > 100 µM | GI50 (BT-549 breast) > 100 µM | GI50 (OVCAR-3 ovarian) > 100 µM | GI50 (T-47D breast) > 100 µM | GI50 (MOLT-4 leukemia) > 100 µM | GI50 (SW-620 colon) > 100 µM | GI50 (OVCAR-4 ovarian) 32.3 µM | GI50 (PC-3 prostate) > 100 µM | GI50 (A498 renal) > 100 µM | GI50 (CCRF-CEM leukemia) 43.2 µM | GI50 (MALME-3M melanoma) > 100 µM | GI50 (RPMI-8226 leukemia) > 100 µM | GI50 (MCF7 breast) > 100 µM | GI50 (SF-268 CNS) > 100 µM | GI50 (DU-145 prostate) > 100 µM | GI50 (HL-60(TB) leukemia) 23.9 µM | GI50 (KM12 colon) > 100 µM | GI50 (OVCAR-8 ovarian) > 100 µM | GI50 (TK-10 renal) > 100 µM | GI50 (SK-OV-3 ovarian) > 100 µM | GI50 (MDA-MB-231 breast) > 100 µM | GI50 (HCT-15 colon) > 100 µM | GI50 (SR leukemia) > 100 µM | GI50 (SN12C renal) > 100 µM | GI50 (SK-MEL-2 melanoma) > 100 µM | GI50 (NCI-H23 lung) 55.7 µM | GI50 (HOP-62 NSCLC) 34.7 µM | GI50 (UACC-257 melanoma) > 100 µM | GI50 (NCI-H226 lung) > 100 µM | GI50 (IGROV1 ovarian) > 100 µM | GI50 (CAKI-1 renal) > 100 µM | GI50 (HT29 colon) > 100 µM | GI50 (EKVX NSCLC) > 100 µM | GI50 (NCI-H460 NSCLC) > 100 µM | GI50 (M14 melanoma) > 100 µM | GI50 (HOP-92 NSCLC) > 100 µM
> 100 µM: TGI (SNB-19 CNS) | TGI (HCC-2998 colon) | TGI (786-0 renal) | TGI (SK-MEL-28 melanoma) | TGI (U251 glioblastoma) | TGI (HS 578T breast) | TGI (ACHN renal) | TGI (SF-539 CNS) | TGI (NCI/ADR-RES ovarian) | TGI (MDA-MB-435 melanoma) | TGI (A549 NSCLC) | TGI (COLO 205 colon) | TGI (OVCAR-5 ovarian) | TGI (UACC-62 melanoma) | TGI (NCI-H322M lung) | TGI (SK-MEL-5 melanoma) | TGI (SF-295 CNS) | TGI (BT-549 breast) | TGI (OVCAR-3 ovarian) | TGI (T-47D breast) | TGI (MOLT-4 leukemia) | TGI (SW-620 colon) | TGI (OVCAR-4 ovarian) | TGI (PC-3 prostate) | TGI (A498 renal) | TGI (CCRF-CEM leukemia) | TGI (MALME-3M melanoma) | TGI (RPMI-8226 leukemia) | TGI (MCF7 breast) | TGI (SF-268 CNS) | TGI (DU-145 prostate) | TGI (KM12 colon) | TGI (OVCAR-8 ovarian) | TGI (TK-10 renal) | TGI (SK-OV-3 ovarian) | TGI (MDA-MB-231 breast) | TGI (HCT-15 colon) | TGI (SR leukemia) | TGI (SN12C renal) | TGI (SK-MEL-2 melanoma) | TGI (NCI-H23 lung) | TGI (HOP-62 NSCLC) | TGI (UACC-257 melanoma) | TGI (NCI-H226 lung) | TGI (IGROV1 ovarian) | TGI (CAKI-1 renal) | TGI (HT29 colon) | TGI (EKVX NSCLC) | TGI (NCI-H460 NSCLC) | TGI (M14 melanoma) | TGI (HOP-92 NSCLC)
47.8 µM: TGI (NCI-H522 lung)
57.1 µM: TGI (RXF 393 renal)
45.3 µM: TGI (HL-60(TB) leukemia)
